Data from publication PMC7466750, “Crystal structures of human ENPP1 in apo and bound forms” (Acta Crystallographica. Section D, Structural Biology, 2020).

Legend:
hENPP1 [1] = target: T1, hENPP1 (Homo sapiens, UniProt P22413); assay: Surface plasmon resonance (SPR) binding to immobilised hENPP1 98–925, 1:1 steady-state affinity model; set-up: hENPP1^98–925 was coupled to the chip surface at 25°C; made in house; host or cells: 293-F cells (human), with 5 µM kifunensine
T1 sequence (P22413 98-925): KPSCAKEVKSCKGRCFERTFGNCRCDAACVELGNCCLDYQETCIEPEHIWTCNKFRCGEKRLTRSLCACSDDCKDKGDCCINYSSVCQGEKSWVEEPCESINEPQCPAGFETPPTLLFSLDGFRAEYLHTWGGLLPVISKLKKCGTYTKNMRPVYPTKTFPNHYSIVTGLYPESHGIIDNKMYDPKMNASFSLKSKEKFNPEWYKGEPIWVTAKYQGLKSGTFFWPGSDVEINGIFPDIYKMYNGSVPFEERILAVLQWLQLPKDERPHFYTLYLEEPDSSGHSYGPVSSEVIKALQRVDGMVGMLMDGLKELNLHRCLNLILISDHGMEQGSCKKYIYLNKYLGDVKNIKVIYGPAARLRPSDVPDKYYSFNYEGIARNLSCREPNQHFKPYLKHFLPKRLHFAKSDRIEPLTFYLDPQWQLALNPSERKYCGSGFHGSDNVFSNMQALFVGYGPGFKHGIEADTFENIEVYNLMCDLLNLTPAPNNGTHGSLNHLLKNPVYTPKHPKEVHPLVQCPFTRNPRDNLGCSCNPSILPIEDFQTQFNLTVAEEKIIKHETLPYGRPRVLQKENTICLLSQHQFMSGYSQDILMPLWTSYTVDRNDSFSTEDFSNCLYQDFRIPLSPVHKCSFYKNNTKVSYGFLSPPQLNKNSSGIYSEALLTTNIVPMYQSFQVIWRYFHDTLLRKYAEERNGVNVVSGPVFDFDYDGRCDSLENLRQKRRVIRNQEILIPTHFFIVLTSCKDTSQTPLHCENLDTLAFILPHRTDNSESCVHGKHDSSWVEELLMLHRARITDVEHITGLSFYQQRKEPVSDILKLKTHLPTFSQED
Method: The protein was diluted to 25 µg ml^−1 at pH 6.0 [10 mM 2-(N-morpholino)ethanesulfonic acid (MES), 0.005%(v/v) Tween 20] and injected to an immobilization level of 8–10 kRU. The surface was then blocked with 1 M ethanolamine pH 8.0 for 7 min. SPR experiments were performed at 25°C in SPR running buffer consisting of 50 mM Tris pH 7.4, 150 mM NaCl, 50 µM ZnCl2, 0.005%(v/v) Tween 20, 2%(v/v) DMSO. When performing dose–response testing, analytes were serially diluted (twofold or threefold), injected for 30–90 s contact time and allowed to dissociate back to baseline. The flow rate was 60 µl min^−1. Binding sensorgrams were processed, solvent-corrected and double-referenced using the Scrubber software (BioLogic Software, Australia). Responses at equilibrium for each analyte were fitted to a 1:1 steady-state affinity model that was available within Scrubber.

hENPP1 [2] = target: T1, hENPP1; assay: Differential scanning fluorimetry (DSF) thermal shift of hENPP1; assay type: binding; details: for ΔT m: DSF
Method: DSF experiments were performed using a Bio-Rad CFX96 thermocycler, with the fluorescence intensity measured with excitation and emission at 490 and 570 nm, respectively. Plates were heated from 20 to 100°C at a heating rate of 1.0°C min^−1. Protein was present at a final concentration of 15 µg ml^−1. The well volume was 20 µl. The buffer was 50 mM Tris–HCl pH 7.4, 150 mM NaCl, 50 µM ZnCl2. […] Ligands and controls were present in triplicate.

[3] = Determined by SPR, triplicates ± SD, 25°C, pH 7.4

## Nc1ccn([C@@H]2O[C@H](COP(=O)(O)O)[C@@H](O)[C@H]2O)c(=O)n1 [CMP]
hENPP1 [1]; [3]
  Kd: 1500 ± 300 nM
hENPP1 [1]; SPR
  Kd: > 1000 nM
hENPP1 [2]; compounds at 100 µM
  ΔT m: +2.1

## Nc1nc2c(ncn2[C@@H]2O[C@@H]3COP(=O)(O)O[C@H]4[C@@H](O)[C@H](n5cnc6c(N)ncnc65)O[C@@H]4COP(=O)(O)O[C@H]3[C@H]2O)c(=O)[nH]1 [3′3′-cGAMP]
hENPP1 [1]; [3]
  Kd: 1300 ± 300 nM
hENPP1 [1]; SPR
  Kd: 1300 nM
hENPP1 [2]; tested at 10 µM
  ΔT m: +1.2

## COc1cc2ncnc(N3CCC(CNS(N)(=O)=O)CC3)c2cc1OC [QPS2]
hENPP1 [1]; [3]
  Kd: 55 ± 6 nM
hENPP1 [2]; compounds at 100 µM
  ΔT m: +4.5

## Nc1ncnc2c1ncn2[C@@H]1O[C@H](COP(=O)(O)OP(=O)(O)O)[C@@H](O)[C@H]1O [ADP]
hENPP1 [1]; [3]
  Kd: 56 ± 3 nM
hENPP1 [2]; compounds at 100 µM
  ΔT m: +3.3

## O=c1ccn([C@@H]2O[C@H](COP(=O)(O)O)[C@@H](O)[C@H]2O)c(=O)[nH]1 [UMP]
hENPP1 [1]; [3]
  Kd: 1100 ± 300 nM
hENPP1 [1]; SPR
  Kd: > 1000 nM
hENPP1 [2]; compounds at 100 µM
  ΔT m: +1.8

## COc1ccc2c(Oc3ccc(NS(N)(=O)=O)cc3)ccnc2c1 [Ex54]
hENPP1 [1]; [3]
  Kd: 100 ± 20 nM

## Nc1ncnc2c1ncn2[C@@H]1O[C@H](COP(=O)(O)O)[C@@H](O)[C@H]1O [AMP]
hENPP1 [1]; [3]
  Kd: 103 ± 8 nM
hENPP1 [2]; compounds at 100 µM
  ΔT m: +2.7

## Nc1nc(=O)c2ncn([C@@H]3O[C@H](COP(=O)(O)O)[C@@H](O)[C@H]3O)c2[nH]1 [GMP]
hENPP1 [1]; [3]
  Kd: 470 ± 60 nM
hENPP1 [2]; DSF melting curve, Supplementary Fig. S6
  Tm: 60.34 (+/-0.03)
hENPP1 [2]; compounds at 100 µM
  ΔT m: +1.0

## Cc1cn([C@H]2C[C@H](O)[C@@H](COP(=O)(O)O)O2)c(=O)[nH]c1=O [TMP]
hENPP1 [1]; [3]
  Kd: 1800 ± 300 nM
hENPP1 [1]; SPR
  Kd: > 1000 nM
hENPP1 [2]; compounds at 100 µM
  ΔT m: +1.2
